Measurements: patent US20150306112A1 (National Cheng Kung University, priority 2014, published 2015)

Columns and labels:
[1] = tested on: P-388 murine leukaemia cells; conditions: cited from earlier work
[2] = tested on: JAK2, STAT3, STAT5 and LMO2 in HepG2 cells; experiment: Immunoblot of JAK2/STAT3/STAT5/LMO2 in HepG2 cells; type: cell-based, human; conditions: 20 μM, 48 h
Experimental: (§1) FIG. 3. […] Total cell lysates were examined for the indicated proteins by immunoblotting. (B) Jurkat cells were transfected with p-GAS-Luc plasmids. […] Total cell lysates were harvested, and their luciferase activities were determined and normalised to the total protein. […] Total mRNA was prepared, and the mRNA levels of IRF-1 and SOCS-1 were detected by RT-PCR. GAPDH was used as the reference band. […] Total cell lysates were examined for the indicated proteins by immunoblotting. β-actin was used as internal control. […] Total cell lysates were examined for the indicated proteins by immunoblotting. All data are one of three independent experiments with similar results.
(§2) As JAK2/STAT3 signaling has a role in human hepatoma HepG2 cell proliferation, JAK2 activation promotes recruitment to the receptor complex of STAT3 and STAT5 [32], and LMO2 expression.

[3] = tested on: STAT3 in RAW264.7 cells; experiment: Immunoblot of IL-6-induced pSTAT3 in RAW264.7 cells; type: cell-based
Experimental: (§3) FIG. 5. […] Cell proliferation was measured by MTS assay. ***P<0.001, **P<0.01, *P<0.05 when compared with the control group. […] Following incubation, proteins were extracted and assessed by immunoblot analysis. Similar results were obtained in at least three independent experiments.
(§4) Cell lysates were analysed by immunoblotting with primary antibodies against pSTAT1, pSTAT3, IRF-1 and β-actin, followed by the appropriate HRP-linked secondary antibodies. Immunoreactive protein bands were detected using an enhanced chemiluminescence (ECL) kit (Pierce Biotechnology, Rockford, Ill.).

[4] = tested on: Con A-induced liver injury; experiment: Con A-induced hepatitis in mice; type: in vivo, C57BL/6 mice
Experimental: FIG. 4. […] (A) Representative microphotographs showing liver and spleen histopathologic changes with hematoxylin-and-eosin-staining (original magnification ×200). (B) The necrosis was analysed with a four-point score: 0, no; 1, 1-20% necrosis; 2, 20-40% necrosis; 3, >40% necrosis. Infiltration of leukocytes was graded on a four-point severity scale: 0, none; 1, little; 2, moderate; 3, mass. (C) Serum ALT and AST activities were measured at 8 h after Con A injection. (D) Serum levels of IFN-γ, IL-6 and IL-4 were measured at 8 h after Con A injection by ELISA. (E) Proteins from liver and spleen tissues of vehicle, ZAA and dexamethasone-treated mice were extracted and subjected to immunoblot. Values are shown as mean±S.E.M. from individual mice (n=10-13 mice/group). ***P<0.001,**P<0.01, *P<0.05 as compared with vehicle-treated mice. Similar results were obtained in at least three independent experiments.
The positive control animals with Con A-induced hepatitis were given the same amount of solvent (0.2% cyclodextrin) i.p., without any drugs. Blood samples were collected from each group for plasma transaminase activities and cytokine expression level determination. Part of the liver and spleen biopsy samples were fixed in 10% formalin, embedded in paraffin for further hematoxylin-eosin staining and the rest of the tissue samples were frozen at −80° C. for further studies.
Liver injury was quantified by determination of alanine aminotransferase (ALT) and aspartate aminotransferase (AST) activities in serum, according to the Reitman-Frankel method.

[5] = tested on: Jurkat cells; experiment: Jurkat cell proliferation by MTS assay and caspase immunoblot; type: cell-based, human
[6] = tested on: JAK2; experiment: Immunoblot of JAK2/STAT phosphorylation in Jurkat and THP-1 cells; type: cell-based, human; conditions: ZAA 3 h, cytokine 30 min
Experimental: as §1
as §4, with “western blot” for “immunoblotting”, “against JAK2, pJAK2, JAK3, pJAK3,” for “against”, “pSTAT5” for “IRF-1”

[7] = tested on: BALB/c and C57/BL6 splenocytes; experiment: Mixed lymphocyte reaction assay; type: cell-based, mouse; conditions: 72 h, MTS
Experimental: as §3
The cell number of total lymphocytes was measured using the CellTiter kit.

[8] = tested on: IRF-1 in Jurkat cells; experiment: IRF-1 expression by immunoblot in Jurkat cells; type: cell-based, human; conditions: 20 μM, vs vehicle-treated cells
Experimental: (§5) FIG. 1. […] After the incubation, cell lysates were assessed by immunoblot. […] In the same condition, cell proliferation was evaluated at 24, 48 and 72 h by MTS assay (lower). […] Data are expressed as the mean±SEM (n=4). **P, 0.01; ***P, 0.001 vs. stimulators-treated groups. Similar results were obtained in at least three independent experiments.
The increase in cleaved pro-caspase-3 and pro-caspase-8 was also observed at the end of the 24 h ZAA-treatment. […] In other words, ZAA was safe in normal cells, but not in rapidly proliferating cells.

[9] = tested on: STAT1, STAT3 and IRF-1 in splenocytes; experiment: Immunoblot of IFN-γ/pSTAT1 and IL-6/pSTAT3 signaling in splenocytes; type: cell-based, mouse
Experimental: as §5, §4

[10] = tested on: IRF-1 and SOCS-1 transcription; experiment: RT-PCR of IRF-1 and SOCS-1 mRNA; type: cell-based, human; conditions: Jurkat and THP-1 cells
Experimental: as §1
Total RNA was extracted using the Trizol reagent according to the manufacturer's instructions. IRF-1, SOCS-1 and glyceraldehyde 3-phosphate GAPDH mRNA expression levels were detected by RT-PCR.

[11] = tested on: pSTAT1 and IRF-1; experiment: Immunoblot of IFN-γ activated pSTAT1 and IRF-1 in Jurkat, THP-1, HMEC-1 and Chang liver cells; type: cell-based, human; conditions: 2 h and 8 h, ZAA pre-treatment
Experimental: FIG. 7. IFN-γ-activated STAT1 and induced IRF-1 protein expression in Jurkat, THP-1, Chang liver and HMEC-1 cells. […] After various time periods, cells were harvested, and total protein extracts were prepared for imunoblot analysis using the indicated antibodies. Similar results were obtained in at least three independent experiments.
as §4

[12] = tested on: human JAK2 JH1-JH2; experiment: Native PAGE antibody competition, JAK2 JH1-JH2; type: binding; conditions: antibody against JAK2 aa 745-955
[13] = tested on: interferon-gamma activated sequence (GAS); experiment: Reporter assay for GAS transactivation activity; type: cell-based, human; conditions: Jurkat cells, IFN-γ 20 ng/mL, luciferase reporter
Experimental: as §1
The serum-containing medium of logarithmic growth Jurkat cells was replaced with serum-free RPMI, and the cells were transfected with p-GAS-Luc (0.5 μg/mL) plasmids using the Neon Transfection System (Invitrogen). Four hours later, the serum-free medium was replaced with RPMI containing 10% FBS. […] Luciferase reporter activity was measured according to the manufacturer's recommendation.

[14] = tested on: JAK3; experiment: Immunoblot of IL-2 induced JAK3/STAT5 phosphorylation in Jurkat and THP-1 cells; type: cell-based, human; conditions: ZAA 3 h, cytokine 30 min
Experimental: as §1
as §4, with “western blot” for “immunoblotting”, “against JAK2, pJAK2, JAK3, pJAK3,” for “against”, “pSTAT5” for “IRF-1”

[15] = tested on: IFN-γ secretion of primary mouse splenocytes; experiment: IFN-γ secretion analysis by ELISA in splenocytes; type: cell-based; conditions: 24 h, concentration-dependent
Experimental: as §5
Primary mouse splenocytes were plated at 1×10^5 cells/well with 10% FBS RPMI medium in 96-well plates. Four different experimental conditions were tested. […] All experiments were conducted at 37° C. After a total 24 h of incubation, supernatant IFN-γ concentrations were measured by ELISA kit following the manufactures instructions.

[16] = tested on: C57/BL6 splenocytes; experiment: Splenocyte proliferation by MTS assay; type: cell-based, mouse
Experimental: as §5
Primary mouse splenocytes were cultured in 96-well plates at a density of 4×10^5 cells/well in 10% FBS RPMI 1640 medium and activated with three different stimulators (Con A: 5 μg/mL; PHA: 2.5 μg/mL; Anti-CD3/CD28: 10/1 μg/mL) at 37° C. in 5% CO2/air. […] The cell proliferation was evaluated by MTS assay with a CellTiter kit (Promega, Madison, Wis.).

[17] = molecular target: T1, human JAK3 JH1-JH2 (Homo sapiens, UniProt P52333); experiment: Native PAGE antibody competition, JAK3 JH1-JH2; type: binding; conditions: antibody against aa 716-967
T1 construct: incubated with human JAK2 JH1-JH2 and JAK3 JH1-JH2 at 37° C. for 3 h; purchased Life Technologies
T1 sequence (P52333 521-1124): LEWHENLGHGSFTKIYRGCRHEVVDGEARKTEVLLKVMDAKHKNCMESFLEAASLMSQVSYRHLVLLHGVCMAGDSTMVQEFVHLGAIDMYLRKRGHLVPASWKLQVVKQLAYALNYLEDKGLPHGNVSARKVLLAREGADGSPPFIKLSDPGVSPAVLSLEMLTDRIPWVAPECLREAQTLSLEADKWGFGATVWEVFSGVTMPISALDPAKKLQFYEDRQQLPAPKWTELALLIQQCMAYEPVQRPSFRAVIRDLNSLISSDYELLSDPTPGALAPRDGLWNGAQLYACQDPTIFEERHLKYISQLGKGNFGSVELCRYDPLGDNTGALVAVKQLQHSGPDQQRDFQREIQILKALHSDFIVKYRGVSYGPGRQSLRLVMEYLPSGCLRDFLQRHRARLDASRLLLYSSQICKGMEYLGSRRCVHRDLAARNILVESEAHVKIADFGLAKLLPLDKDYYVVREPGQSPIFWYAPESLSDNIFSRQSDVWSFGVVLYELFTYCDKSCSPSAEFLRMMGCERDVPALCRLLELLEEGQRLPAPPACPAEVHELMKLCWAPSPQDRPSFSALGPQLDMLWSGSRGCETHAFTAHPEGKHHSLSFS
Experimental: Samples were loaded onto native PAGE gels for electrophoresis, and the levels of free JH1-JH2 domain were measured by immunoblotting.

[18] = tested on: JAK1 and TYK2; experiment: Immunoblot of IFN-α/IFN-β-induced STAT1 and JAK1 phosphorylation in Jurkat cells; type: cell-based, human
Experimental: as §1, §2

[19] = 20 mg/kg i.p., 8 h after Con A injection

Question: Which results are given for `C=C(CC[C@@H](C)[C@H]1CC[C@H]2C3=C(C(=O)C[C@]12C)[C@@]1(C)CCC(=O)[C@@H](C)[C@@H]1CC3=O)C(C)C(=O)O` (some centres unmarked) [ZAA, Zhankuic acid A]?
Answer: cytotoxic activity [1]: exhibited cytotoxic activity; phosphorylation of JAK2, STAT3 and STAT5, and LMO2 expression [2]: effectively inhibit; IL-6-induced Tyr705 phosphorylation of STAT3 [3]: suppress; extent of liver damage (histopathology) ([4]; 20 mg/kg i.p. 1 h prior to Con A, 8 h): markedly reduce; pathologic grades: necrosis and infiltration of leukocytes ([4]; 20 mg/kg i.p. pre-treatment): significant preventative effects; hepatitis phenotype by ALT and AST serum levels ([4]; 20 mg/kg i.p., 8 h after Con A): almost completely recovered; reduction of serum level of IFN-γ [4, 19]: 37%; reduction of serum level of IL-4 [4, 19]: 38%; reduction of serum level of IL-6 [4, 19]: 66%; caspase 3 activity and IRF-1 expression in liver and spleen tissues ([4]; 20 mg/kg pre-treatment, immunoblot): significantly reduced; cleaved pro-caspase-3 and pro-caspase-8 ([5]; Jurkat, 24 h ZAA-treatment): increase; Jurkat cell proliferation ([5]; without or with Con A, MTS): remarkably inhibited; IFN-γ-induced JAK2/STAT1, IL-6 induced JAK2/STAT1 and JAK2/STAT3, GM-CSF induced JAK2/STAT5 phosphorylation [6]: potently inhibited; cell proliferation in mixed lymphocytes reaction [7]: inhibitory effect; IRF-1 expression [8]: suppressed; IRF-1 (downstream of STAT) ([9]; IFN-γ, concentration-dependent): inhibitory effect; IL-6-induced Tyr705 phosphorylation of STAT3 ([9]; splenocytes): suppress; IFN-γ-induced Tyr701 phosphorylation of STAT1 ([9]; splenocytes and Jurkat cells, IFN-γ 30 min): completely inhibit; IFN-γ stimulated IRF-1 and SOCS-1 transcription [10]: significantly prevented; IFN-γ activated pSTAT1 and IRF-1 [11]: suppressed; anti-JAK2 antibody recognition of native JH1-JH2 domain [12]: reduced; GAS-mediated transactivation [13]: inhibited; IL-2 induced JAK3/STAT5 phosphorylation [14]: potently inhibited; Con-A-induced IFN-γ secretion [15]: reduced; stimulator-activated T cell proliferation ([16]; Con-A, PHA or anti-CD3/CD28-induced splenocytes, concentration-dependent): significantly inhibited; proliferation of splenocytes, ZAA alone ([16]; no stimulator, up to 20 μM): did not affect; anti-JAK3 antibody recognition of native JH1-JH2 domain [17]: reduced; JAK1 phosphorylation ([18]; 20 μM): not suppressed; IFN-α and IFN-β-induced STAT1 phosphorylation ([18]; Jurkat cells, via JAK1 and TYK2): could not inhibit
